Source: EP3002287B1, “Thiochromeno[2,3-c]quinolin-12-one derivatives and their use as topoisomerase inhibitors” (National Defense Medical Center, priority 2014, dated 2016)

Legend:
Experiment in all cases: NCI in vitro 60-cell drug screen (SRB assay)
Assay type in all cases: cell-based
K-562 = K-562 (Leukemia); 10^-5 molar concentration; 48 hours
MOLT-4 = MOLT-4 (Leukemia); 10^-5 molar concentration; 48 hours
RPMI-8226 = RPMI-8226 (Leukemia); 10^-5 molar concentration; 48 hours
SR = SR (Leukemia); 10^-5 molar concentration; 48 hours
A549/ATCC = A549/ATCC (Non-small cell lung cancer); 10^-5 molar concentration; 48 hours
EKVX = EKVX (Non-small cell lung cancer); 10^-5 molar concentration; 48 hours
HOP-62 = HOP-62 (Non-small cell lung cancer); 10^-5 molar concentration; 48 hours
NCI-H226 = NCI-H226 (Non-small cell lung cancer); 10^-5 molar concentration; 48 hours
NCI-H23 = NCI-H23 (Non-small cell lung cancer); 10^-5 molar concentration; 48 hours
NCI-H322M = NCI-H322M (Non-small cell lung cancer); 10^-5 molar concentration; 48 hours
NCI-H460 = NCI-H460 (Non-small cell lung cancer); 10^-5 molar concentration; 48 hours
NCI-H522 = NCI-H522 (Non-small cell lung cancer); 10^-5 molar concentration; 48 hours
HCC-2998 = HCC-2998 (Colon cancer); 10^-5 molar concentration; 48 hours
HCT-116 = HCT-116 (Colon cancer); 10^-5 molar concentration; 48 hours
SW-620 = SW-620 (Colon cancer); 10^-5 molar concentration; 48 hours
SF-268 = SF-268 (CNS cancer); 10^-5 molar concentration; 48 hours
SF-539 = SF-539 (CNS cancer); 10^-5 molar concentration; 48 hours
SNB-19 = SNB-19 (CNS cancer); 10^-5 molar concentration; 48 hours
SNB-75 = SNB-75 (CNS cancer); 10^-5 molar concentration; 48 hours
LOX IMVI = LOX IMVI (Melanoma); 10^-5 molar concentration; 48 hours
M14 = M14 (Melanoma); 10^-5 molar concentration; 48 hours
SK-MEL-5 = SK-MEL-5 (Melanoma); 10^-5 molar concentration; 48 hours
UACC-257 = UACC-257 (Melanoma); 10^-5 molar concentration; 48 hours
OVCAR-8 = OVCAR-8 (Ovarian cancer); 10^-5 molar concentration; 48 hours
786-0 = 786-0 (Renal cancer); 10^-5 molar concentration; 48 hours
CAKI-1 = CAKI-1 (Renal cancer); 10^-5 molar concentration; 48 hours
RXF 393 = RXF 393 (Renal cancer); 10^-5 molar concentration; 48 hours
SN12C = SN12C (Renal cancer); 10^-5 molar concentration; 48 hours
UO-31 = UO-31 (Renal cancer); 10^-5 molar concentration; 48 hours
PC-3 = PC-3 (Prostate cancer); 10^-5 molar concentration; 48 hours
MCF7 = MCF7 (Breast cancer); 10^-5 molar concentration; 48 hours
MDA-MB-231/ATCC = MDA-MB-231/ATCC (Breast cancer); 10^-5 molar concentration; 48 hours
HS 578T = HS 578T (Breast cancer); 10^-5 molar concentration; 48 hours
BT-549 = BT-549 (Breast cancer); 10^-5 molar concentration; 48 hours
SK-OV-3 = SK-OV-3 (Ovarian cancer); 10^-5 molar concentration; 48 hours

Row | SMILES | Growth percent (K-562) | Growth percent (MOLT-4) | Growth percent (RPMI-8226) | Growth percent (SR) | Growth percent (A549/ATCC) | Growth percent (HOP-62) | Growth percent (NCI-H226) | Growth percent (NCI-H23) | Growth percent (NCI-H322M) | Growth percent (NCI-H460) | Growth percent (NCI-H522) | Growth percent (HCC-2998) | Growth percent (HCT-116) | Growth percent (SW-620) | Growth percent (SF-268) | Growth percent (SF-539) | Growth percent (SNB-19) | Growth percent (SNB-75) | Growth percent (LOX IMVI) | Growth percent (M14) | other results
1 | O=C(O)c1c(Sc2ccc(Cl)cc2)c(O)nc2ccccc12 [Compound 2, 3-((4-Chlorophenyl)thio)-2-hydroxyquinoline-4-carboxylic acid] | 112.29% | 97.25% | 98.10% | 106.33% | 107.34% | 116.47% | 105.64% | 92.61% | 101.10% | 104.20% | 81.64% | 100.97% | 103.87% | 96.92% | 113.60% | 110.22% | 97.17% | 82.18% | 90.46% | 106.90% | Growth percent (EKVX): 89.47%; Growth percent (SK-MEL-5): 98.07%; Growth percent (UACC-257): 121.83%; Growth percent (OVCAR-8): 114.68%; Growth percent (786-0): 104.44%; Growth percent (CAKI-1): 76.26%; Growth percent (RXF 393): 113.90%; Growth percent (SN12C): 95.83%; Growth percent (UO-31): 68.91%; Growth percent (PC-3): 93.23%; Growth percent (MCF7): 91.95%; Growth percent (MDA-MB-231/ATCC): 95.70%; Growth percent (HS 578T): 88.33%; Growth percent (BT-549): 124.20%
2 | O=c1c2cc(Cl)ccc2sc2c(N3CCN(CCO)CC3)nc3ccccc3c12 [Compound 10, 10-Chloro-6-(4-(2-hydroxyethyl)piperazin-1-yl)-12H-thiochrom eno[2,3-c]quinolin-12one] | 35.47% | 70.01% | 84.87% | 79.07% | 95.49% | 67.83% | 89.29% | 84.75% | 82.85% | 93.71% | 94.76% | 103.49% | 69.33% | 88.11% | 87.80% | 86.18% | 84.81% | 77.64% | 87.79% | 101.70% | Growth percent (SK-MEL-5): 94.13%; Growth percent (UACC-257): 102.79%; Growth percent (OVCAR-8): 84.95%; Growth percent (SK-OV-3): 95.12%; Growth percent (786-0): 85.58%; Growth percent (CAKI-1): 87.87%; Growth percent (RXF 393): 70.31%; Growth percent (SN12C): 86.81%; Growth percent (UO-31): 42.34%; Growth percent (PC-3): 77.99%; Growth percent (MCF7): 51.73%; Growth percent (MDA-MB-231/ATCC): 55.49%; Growth percent (HS 578T): 76.01%; Growth percent (BT-549): 90.05%
